Test system: patients with primary focal segmental glomerulosclerosis (FSGS)
Assay: DUET phase 2 trial: change in urine protein to creatinine (UP/C) ratio, proteinuria
Format: in vivo, human
Conditions: for Complete remission (UP/C ratio <0.3 g/g), number of patients: 8-week double-blind period; for Reduction from Baseline in UP/C ratio (geometric least squares mean reduction) / Reduction from Baseline in UP/C ratio, intent-to-treat analysis: baseline to week 8; for Reduction from Baseline in UP/C ratio, intent-to-treat analysis: missing data imputed as zero change; for Proportion of patients who achieved UP/C ratio ≤1.5 g/g with >40% reduction: week 8; for percentage of patients achieving UP/C ratio ≤1.5 g/g with >40% reduction during open-label period: 8 weeks to 48 weeks
Text: DUET trial is a phase 2, double-blind, randomized, active-control, dose-escalation study (NCT01613118) that evaluates the efficacy and safety of sparsentan as a treatment for primary focal segmental glomerulosclerosis (FSGS), a rare disorder characterized by massive proteinuria and progressive loss of kidney function. Patients (ranging in age from 8 years to 75 years) with biopsy-proven primary FSGS (or documentation of a genetic mutation in a podocyte protein associated with the disease) having baseline urine protein to creatinine (“UP/C”) ratios greater than […] and estimated glomerular filtration rates greater than 30 ml/min were eligible for the study. The inclusion criteria also included a mean seated blood pressure >[…] and <145/96 mmHg for patients aged 18 years or older, or, for patients aged <18 years of age, a mean seated blood pressure of >90/60 mmHg and <95th percentile for age, gender, and height. The inclusion criteria included an allowance for a stable dose of immunosuppressive medication for ≥1 month. […] Patients who signed consent and met all inclusion and exclusion criteria during the screening phase underwent a 2-week angiotensin receptor blocker (ARB) and angiotensin converting enzyme (ACE) inhibitor washout period before being randomly assigned to one of the three escalating dose cohorts receiving sparsentan (200 mg/day; 400 mg/day; and 800 mg/day) or a fixed maximal dose of active control (the ARB irbesartan, at 300 mg/day) in a 3:1 ratio within each cohort. The primary endpoint was the change in UP/C ratio (determined as a measure of urinary protein excretion) from baseline. […] After the completion of an 8-week double-blind period, the patients continued sparsentan treatment on their assigned doses in an open-label extension for 136 additional weeks. Irbesartan control arm patients were offered sparsentan treatment at the dose they would have received according to the double-blind dose group in which they were enrolled. The analysis of the primary endpoint included 96 randomized patients who received at least one dose of the study drug, and had both baseline and week 8 UP/C ratio values (i.e., had completed 8 weeks of double-blind treatment). The pre-specified analysis order was (1) all sparsentan doses vs. irbesartan; (2) sparsentan 800- and 400-mg doses vs. irbesartan; (3) sparsentan 400-mg dose vs. irbesartan; (4) sparsentan 800-mg dose vs. irbesartan. Baseline or week 8 UP/C ratio data were missing for 9 sparsentan-treated patients and 4 irbesartan-treated patients. An intent-to-treat analysis was conducted, in which the missing data were imputed as zero change in UP/C ratio. […] The results across sparsentan dose cohorts were similar to those observed without imputed data (Table 4).

[1] = Baseline, sparsentan 200-800 mg/day (n=64), irbesartan 300 mg/day (n=32)
[2] = Baseline, sparsentan 400-800 mg/day (n=51), irbesartan 300 mg/day (n=25)
[3] = Week 8, sparsentan 200-800 mg/day (n=64), irbesartan 300 mg/day (n=32)
[4] = Week 8, sparsentan 400-800 mg/day (n=51), irbesartan 300 mg/day (n=25)
[5] = dose cohort 200 mg sparsentan, irbesartan 300 mg/day
[6] = dose cohort 400 mg and 800 mg sparsentan, irbesartan 300 mg/day
[7] = dose cohort 400 mg sparsentan, irbesartan 300 mg/day
[8] = dose cohort 800 mg sparsentan, irbesartan 300 mg/day
[9] = dose cohort All (sparsentan 200-800 mg/day; irbesartan 300 mg/day)
[10] = sparsentan 200-800 mg/day (n=64), irbesartan 300 mg/day (n=32)
[11] = sparsentan 400-800 mg/day (n=51), irbesartan 300 mg/day (n=25)

Row | Compound | Complete remission (UP/C ratio <0.3 g/g), number of patients | UP/C ratio, maximum [1] | UP/C ratio, mean (SD) [1] | UP/C ratio, median [1] | UP/C ratio, minimum [1] | UP/C ratio, maximum [2] | UP/C ratio, mean (SD) [2] | UP/C ratio, median [2] | UP/C ratio, minimum [2] | UP/C ratio, maximum [3] | UP/C ratio, mean (SD) [3] | UP/C ratio, median [3] | UP/C ratio, minimum [3] | UP/C ratio, maximum [4] | UP/C ratio, mean (SD) [4] | UP/C ratio, median [4] | UP/C ratio, minimum [4] | Reduction from Baseline in UP/C ratio (geometric least squares mean reduction) [5] | Reduction from Baseline in UP/C ratio (geometric least squares mean reduction) [6] | Reduction from Baseline in UP/C ratio (geometric least squares mean reduction) [7] | further results
1 | CCCCC1=NC2(CCCC2)C(=O)N1Cc1ccc(-c2ccccc2-c2nnn[nH]2)cc1 [Irbesartan, irbesartan, reference compound] | in no irbesartan-treated patients | 10.73 g/g | 4.017 (2.6717) g/g | 3.265 g/g | 0.88 g/g | 10.73 g/g | 3.816 (2.7160) g/g | 2.970 g/g | 0.88 g/g | 10.19 g/g | 3.164 (2.2713) g/g | 2.405 g/g | 0.43 g/g | 10.19 g/g | 2.990 (2.3598) g/g | 2.390 g/g | 0.43 g/g | 15.0% | 19.0% | 28.1% | Reduction from Baseline in UP/C ratio (geometric least squares mean reduction) (dose cohort 400 mg and 800 mg sparsentan, irbesartan 300 mg/day, listed as irbesartan): 19%; Reduction from Baseline in UP/C ratio (geometric least squares mean reduction) [8]: 9.3%; Reduction from Baseline in UP/C ratio (geometric least squares mean reduction) [9]: 18.5%; Reduction from Baseline in UP/C ratio (geometric least squares mean reduction) (dose cohort All (sparsentan 200-800 mg/day; irbesartan 300 mg/day), listed as irbesartan): 19%; Reduction from Baseline in UP/C ratio, intent-to-treat analysis (dose cohort 200 mg): 13.2%; Reduction from Baseline in UP/C ratio, intent-to-treat analysis (dose cohort 400 mg): 23.6%; Reduction from Baseline in UP/C ratio, intent-to-treat analysis (dose cohort 400 mg and 800 mg): 15.9%; Reduction from Baseline in UP/C ratio, intent-to-treat analysis (dose cohort 800 mg): 9.7%; Reduction from Baseline in UP/C ratio, intent-to-treat analysis (dose cohort All): 15.7%; % Change from Baseline to Week 8 in UP/C ratio, geometric LSmeans [10]: −18.5%; % Change from Baseline to Week 8 in UP/C ratio, geometric LSmeans [11]: −19.0%; Proportion of patients who achieved UP/C ratio ≤1.5 g/g with >40% reduction (dose cohort 200 mg): 0.0%; Proportion of patients who achieved UP/C ratio ≤1.5 g/g with >40% reduction (dose cohort 400 mg): 17.7%; Proportion of patients who achieved UP/C ratio ≤1.5 g/g with >40% reduction (dose cohort 400 mg and 800 mg): 12.0%; Proportion of patients who achieved UP/C ratio ≤1.5 g/g with >40% reduction (dose cohort 800 mg): 0.0%; Proportion of patients who achieved UP/C ratio ≤1.5 g/g with >40% reduction (dose cohort All): 9.4%; Proportion of patients who achieved UP/C ratio ≤1.5 g/g with >40% reduction (dose cohort All, listed as irbesartan): 9%
2 | CCCCC1=NC2(CCCC2)C(=O)N1Cc1ccc(-c2ccccc2S(=O)(=O)Nc2noc(C)c2C)c(COCC)c1 [Sparsentan, 4′-((2-butyl-4-oxo-1,3-diazaspiro[4.4]non-1-en-3-yl)methyl)-N-(4,5-dimethylisoxazol-3-yl)-2′-(ethoxymethyl)-[1,1′-biphenyl]-2-sulfonamide] | 4 patients | 18.66 g/g | 4.707 (3.7810) g/g | 3.620 g/g | 0.43 g/g | 18.66 g/g | 4.824 (4.0506) g/g | 3.530 g/g | 0.43 g/g | 14.47 g/g | 3.300 (3.5719) g/g | 1.980 g/g | 0.12 g/g | 14.47 g/g | 3.208 (3.4738) g/g | 1.900 g/g | 0.12 g/g | 33.1% | 47.4% | 52.7% | percentage of patients achieving UP/C ratio ≤1.5 g/g with >40% reduction during open-label period (patients continuing to receive sparsentan): increased; percentage of patients achieving UP/C ratio ≤1.5 g/g with >40% reduction during open-label period (patients switched from irbesartan to sparsentan): increased; Reduction from Baseline in UP/C ratio (geometric least squares mean reduction) (dose cohort 400 mg and 800 mg sparsentan, irbesartan 300 mg/day, listed as sparsentan): 47%; Reduction from Baseline in UP/C ratio (geometric least squares mean reduction) [8]: 41.3%; Reduction from Baseline in UP/C ratio (geometric least squares mean reduction) [9]: 44.8%; Reduction from Baseline in UP/C ratio (geometric least squares mean reduction) (dose cohort All (sparsentan 200-800 mg/day; irbesartan 300 mg/day), listed as sparsentan): 45%; Reduction from Baseline in UP/C ratio, intent-to-treat analysis (dose cohort 200 mg): 33.1%; Reduction from Baseline in UP/C ratio, intent-to-treat analysis (dose cohort 400 mg): 50.5%; Reduction from Baseline in UP/C ratio, intent-to-treat analysis (dose cohort 400 mg and 800 mg): 44.8%; Reduction from Baseline in UP/C ratio, intent-to-treat analysis (dose cohort 800 mg): 38.4%; Reduction from Baseline in UP/C ratio, intent-to-treat analysis (dose cohort All): 42.7%; % Change from Baseline to Week 8 in UP/C ratio, geometric LSmeans [10]: −44.8%; % Change from Baseline to Week 8 in UP/C ratio, geometric LSmeans [11]: −47.4%; Proportion of patients who achieved UP/C ratio ≤1.5 g/g with >40% reduction (dose cohort 200 mg): 15.4%; Proportion of patients who achieved UP/C ratio ≤1.5 g/g with >40% reduction (dose cohort 400 mg): 38.1%; Proportion of patients who achieved UP/C ratio ≤1.5 g/g with >40% reduction (dose cohort 400 mg and 800 mg): 31.4%; Proportion of patients who achieved UP/C ratio ≤1.5 g/g with >40% reduction (dose cohort 800 mg): 26.7%; Proportion of patients who achieved UP/C ratio ≤1.5 g/g with >40% reduction (dose cohort All): 28.1%; Proportion of patients who achieved UP/C ratio ≤1.5 g/g with >40% reduction (dose cohort All, listed as sparsentan): 28%
